Data as given in patent US20250090996A1, “ACID GAS REMOVAL METHOD, ACID GAS ABSORBENT, AND ACID GAS REMOVAL APPARATUS” (KABUSHIKI KAISHA TOSHIBA, priority 2023, published 2025).

Tests used:
[1] = S concentration of aqueous phase after adding sulfuric acid (ICP); assay type: physicochemical; details: 1 ml of 1 mol/l sulfuric acid added to 30 ml of mixture with water (volume ratio 50:50), after stirring
Description: When the compound (a-1) and water were blended at a volume ratio of 50:50, two phases of an organic phase as an upper phase and an aqueous phase as a lower phase were formed. One (1) ml of 1 mol/1 sulfuric acid was added to 30 ml of the mixture, and, after stirring, the S concentration of the aqueous phase was measured by ICP. As a result, the S concentration was 17.6 mg-S/L (Reference Example 1).

[2] = Regeneration (carbon dioxide release) on heated molecular sieve 4A column; details: column 60° C. to 70° C., inert gas 50 ml/min, fractionated
Description: (§1) When a compound (a-1) of General Formula (a) wherein R^1 and R^3 are 1-ethylpropyl groups and R^2 is C3 linear alkyl and water were blended at a mass ratio of 50:50, two phases of an organic phase (amine compound phase) as an upper phase and an aqueous phase as a lower phase were formed. […] The temperature in the column was changed in a range of 60° C. to 70° C., and an inert gas was caused to flow at 50 ml/min. […] Here, the amount of carbon dioxide saturated and absorbed is a value obtained by measuring the amount of inorganic carbon in the acid gas absorbent with an infrared gas concentration measuring apparatus. The amount of this compound dissolved was 18,000 mg/L at 25° C. and under atmospheric pressure. The amount of the compound dissolved was determined by sampling the lower phase of the two phases fractionated, measuring the total organic carbon concentration with a total organic carbon meter TOC-L (trade name) manufactured by Shimadzu Corporation, and converting it into the amount of amine dissolved from the chemical formula of the compound (a-1).

[3] = Amount of compound dissolved in water (total organic carbon of lower aqueous phase); assay type: physicochemical; details: 25° C., atmospheric pressure, converted from total organic carbon of lower phase
Text: An acid gas absorbent according to the embodiment contains an amine compound and water, as main agents for absorbing an acid gas. The amine compound used here is a liquid amine compound having a secondary amine structure. An acid gas remover contains a mixture of the liquid amine compound and water, and an amount of a salt to be dissolved in water is larger than an amount of the liquid amine compound itself to be dissolved in water, the salt being formed from the liquid amine compound and the acid gas. Here, the liquid amine compound is an amine compound that is liquid at 25° C. under atmospheric pressure. An amount of the liquid amine compound to be dissolved at room temperature is generally small, and, for example, an amount of the liquid amine compound to be dissolved in water at 25° C. is 50,000 mg/L or less. Upon contact of the liquid amine compound with the acid gas, a salt is formed, and is ionized when water coexists, to increase the dissolved amount. The amount of such a salt to be dissolved is, for example, 2 times or more, preferably 5 times or more, and more preferably 10 times or more the amount of the liquid amine to be dissolved as a base at 25° C. In the present embodiment, the dissolved amount (mg/L) is a mass (mg) of the liquid amine based on a total volume (L) of water and the liquid amine compound.
as §1

[4] = Phase state of amine/water mixture before and after carbon dioxide absorption; assay type: physicochemical; details: volume ratio 50:50
[5] = as above; assay type: physicochemical; details: for phase state after absorbing carbon dioxide: mixture with water 50:50 after CO2:N2=1:9 bubbling; for phase state when blended with water: ratio 50:50, before carbon dioxide absorption, organic upper phase, aqueous lower phase
Text: Here, in the present embodiment, the “state in which the organic phase and the aqueous phase are phase-separated” means that, for example, a mixture of water and a liquid amine has a relationship in which a state in which the organic phase and the aqueous phase are phase-separated, in other words, a boundary between the organic phase and the aqueous phase can be visually confirmed. Here, in the present embodiment, the organic phase is a phase containing the liquid amine compound as a main component in a state of being phase-separated, and is also a phase containing a high concentration of the liquid amine compound in a state of being separated from the acid gas. The aqueous phase is a phase containing water as a main component in a state of being phase-separated. At a high carbon dioxide concentration, the acid gas absorbent has an increased amount of the liquid amine compound to be dissolved in water, and the liquid amine compound is dissolved in an aqueous solution. In the acid gas absorbent, the organic phase and the aqueous phase are not phase-separated in this state (the acid gas absorbent has one phase). At a low acid gas concentration, the acid gas absorbent is decreased in solubility of the liquid amine compound in water, and is phase-separated into an aqueous phase and an organic phase containing a high concentration of the liquid amine compound. When the acid gas absorbent is phase-separated, the organic phase and the aqueous phase typically form complete two phases. However, in the present embodiment, even when it is not completely phase-separated, the organic phase and the aqueous phase are referred to as “two phases” in a case where a boundary between the phases can be confirmed.
Hereinafter, Examples of the embodiment will be described. In the following Examples, conditions before heating the acid gas absorbent were 25° C. and atmospheric pressure.
as §1

CCC(CC)NCCCNC(CC)CC [compound (a-1)]
S concentration of the aqueous phase [1]: 17.6 mg-S/L | phase state of mixture after passing through column [2]: two phases were formed | amount of compound dissolved [3]: 18,000 mg/L | phase state when blended with water [4]: two phases | phase state after absorbing carbon dioxide [5]: formed one phase | phase state when blended with water [5]: two phases

CCC(CC)NCCCN(C)CCCNC(CC)CC [compound (b-1)]
phase state of mixture after passing through column [2]: two phases were formed | amount of compound dissolved [3]: 22,000 mg/L | phase state after absorbing carbon dioxide [5]: formed one phase | phase state when blended with water [5]: two phases

CC(C)CC(C)NCCCN(C)CCCNC(C)CC(C)C (stereo not shown) [compound (b-2)]
phase state of mixture after passing through column [2]: two phases were formed | amount of compound dissolved [3]: 4,000 mg/L | phase state after absorbing carbon dioxide [5]: formed one phase | phase state when blended with water [5]: two phases

CC(C)CC(C)NCCCNCCCNC(C)CC(C)C (stereo not shown) [compound (b-3)]
phase state of mixture after passing through column [2]: two phases were formed | amount of compound dissolved [3]: 11,000 mg/L | phase state after absorbing carbon dioxide [5]: formed one phase | phase state when blended with water [5]: two phases

CC(C)N(C)C(C)C [diisopropylmethylamine, reference compound]
phase state when blended with water [5]: two phases
